This is an account of results in patent US20100048671A1, “INHIBITION OF THE 44 KILODALTON ISOFORM OF PIM-1 KINASE RESTORES APOPTOSIS INDUCED BY CHEMOTHERAPEUTIC DRUGS IN CANCER CELLS” (priority 2005, published 2010).

Read-outs that look alike come from different tables or passages of the source.

Type in all cases: cell-based, human
The subject of data set [1] is LNCaP cells over-expressing BCRP. As to the kind of experiment: Drug sensitivity (WST-1) of LNCaP cells over-expressing BCRP infected with lenti-virus encoding Pim-1 SiRNA. The settings on record: MX (0.5 μM) or TPT (0.1 μM), 2 days. The method, then:
FIG. 13A: LNCaP cells infected with lenti-virus encoding vector control, BCRP, Pim-1SiRNA or both were treated with the indicated drugs MX (0.5 μM) or TPT (0.1 μM) for 2 days. Cell viability was determined using the WST-1 assay FIG. 13B: Immunoprecipitation was performed by using anti-BCRP.

The subject of data set [2] is MCF7-MX cells. As to the kind of experiment: Drug sensitivity (WST-1) of MCF7-MX cells infected with lenti-virus encoding Pim-1 SiRNA. The settings on record: Flavopiridol (15 μM) or DTX (50 μM), 2 days. The method, then:
FIG. 11A: MCF7-MX cells infected with lenti-virus encoding vector control and Pim-1 SiRNA were treated with Flavopiridol (15 μM) or DTX (50 μM) as indicated for 2 days. Cell viability was determined using the WST-1 assay. P<0.05 FIG. 11B: expression levels of Pim-1, BCRP and actin analyzed by immunoblotting with the respective antibodies.
(§1) The phosphorylation of BCRP is therapeutically significant because it […] BCRP from causing resistance to chemotherapeutic agents. […] Downregulating Pim-1L expression by a specific siRNA also sensitized the prostate cancer cell line CWR-R1 to apoptosis induced by the chemotherapeutic agents mitoxantrone, topotecan and docetaxel (FIG. 12). The siRNA target sequence for inhibiting Pim-1L expression used to inhibit Pim-1L expression is sequence is: 5′ GCAGGACAGUGCUUGAUAC 3′ identified as SEQ ID NO. 3, as is described in a previous study (29, the entire contents of which is hereby incorporated by reference as if fully set forth herein). This siRNA is targeted at nucleotides 1540-1558 of SEQ ID NO. 1.

The subject of data set [3] is CWR-R1 cells. As to the kind of experiment: Drug sensitivity (WST-1) of CWR-R1 cells infected with lenti-virus encoding Pim-1 SiRNA. The settings on record: mitoxantrone (2 μM), topotecan (5 μM) or docetaxel (50 nM), 2 days. The method, then: FIG. 12A: CWR-R1 cells infected with lenti-virus encoding vector control and Pim-1 SiRNA were treated with MX (2 μM), TPT (5 μM) or DTX (50 nM), respectively for 2 days. Cell viability was determined using the WST-1 assay. FIG. 12B: immunoprecipitation performed by using anti-BCRP.
as §1

Data set [4] deals with Pim-1L. As to the kind of experiment: Threonine phosphorylation of endogenous BCRP after Pim-1 siRNA (immunoprecipitation with anti-BCRP, immunoblotting with anti-phosphothreonine). The settings on record: MCF7/MX cells; lenti-virus encoded siRNA vs vector control.
Description: MCF7-MX cell lysates infected with lenti-virus encoding Vector control and Pim-1 SiRNA(SiPim-1) were subjected to immunoprecipitation with monoclonal BCRP antibody, followed by immunoblotting with anti-phosphothreonine (αpThr).
as §1
The transfected cells were lysed in the buffer (20 mM TrisHCl pH 7.4, 150 mM NaCl, 1 mM EDTA, 1 mM EGTA, 1% Triton X-100, 1 mM Na3VO4, 1 mg/ml aprotinin, 1 mg/ml leupterin and 1 mM PMSF). Insoluble material was removed by centrifugation, and antibodies were added to lysates and incubated for 1-3 hour at 4° C. […]

Data set [5] deals with LNCaP cells. The experiment in a line: Drug sensitivity assay (WST-1 cell viability) of lenti-virus infected LNCaP cells treated with doxorubicin. The settings on record: for viability at 0.1 µg/mL: Homo sapiens, LNCaP, read-out: cells remained viable. The method, then: FIG. 5A: LNCaP cells infected with lenti-virus encoding Flag-Pim-1S, Pim-1L, Pim-1LKM (kinase-deficient mutant) or vector control were treated with doxorubicin (0.1 ug/ml) for the times as indicated. Cell viability was determined by the WST-1 assay. The data were expressed as the mean of triplicates of the doxorubicin-treated samples relative to the untreated controls. * p<0.01 compared with the vector control. The expression of the Pim-1 proteins encoded by the lenti-viruses was determined by immunoblotting with anti-Flag antibody. […] The response to doxorubicin was determined at 20 hour as above. * p<0.01 compared with the vector control; ** p<0.01 compared with Pim-1L alone. Expression of Flag-Pim-1L and T7-EtkKQ was monitored by immunoblotting with anti-Flag and anti-T7 antibody, respectively. FIG. 5C: LNCaP cells infected with the lenti-viruses encoding the indicated proteins as in 5A were treated with 10-100 nM mitoxantrone for 48 h; cell viability was determined as in 5A. * p<0.01 compared with the vector control. FIG. 5D: Etk mediates Pim-1L-induced resistance to mitoxantrone. LNCaP cell were infected with the lenti-viruses and the mitoxatrone response was determined. * p<0.01 compared with the vector control; ** p<0.01 compared with Pim-1L alone. […] LNCaP cells were transfected with the plasmids as indicated. The association of Etk with p53 was determined by immunoprecipitation with anti-p53 and followed by immunoblotting with anti-T7 antibody. The expression of p53, Etk or Pim-1 in these cells was monitored by immunoblotting with anti-p53, anti-T7 and anti-Flag antibody, respectively.
An increase of Etk activity confers drug resistance to apoptosis caused by chemotherapeutic agents in LNCaP cells (20), including doxorubicin and cisplatin. By contrast, P53 binding to Etk decreases Etk activity permits apoptosis. However, the mechanism by which Etk is activated was not known. […] As is shown in FIG. 5A, treatment of LNCaP cells with doxorubicin induced rapid apoptosis as was expected. […] Over-expression of Pim-1S conferred some initial protection against drug-induced apoptosis with about 80% cell survival at 20 h. However, such protection was not sustained until 40 hours. […] In this experiment, LNCaP cells were infected with Lenti-virus encoding Flag-Pim-1 S, Pim-1L, Pim-1LKM (kinase-deficient mutant) or vector control for 24h.
LNCaP cells were infected with the lentiviruses encoding the proteins as indicated by using the protocol described previously (19). At 48 hour post-infection, the cells were seeded into the 96 well plates (3×10^4/well). Doxorubicin or mitoxantrone was added in the medium after 24 h. The effects of doxorubicin on the viability of cells were measured after 20-48 hour by the WST-1 assay (Roche Molecular Biochemicals). The viability rates are expressed as means±SD of the triplicate for each experiment. An aliquot of cells was lysed and followed by immunoblotting with anti-T7 or anti-Flag to monitor the transfection efficiency.

Data set [6] has as its system LNCaP cells. The experiment in a line: Induction of Pim-1 expression by IL-6 (immunoblotting with monoclonal anti-Pim-1 antibody). The settings on record: serum starved LNCaP cells; 25 ngml IL-6, 24 hour, 37 degrees. An excerpt:
FIG. 1A: Induction of Pim-1 expression by IL-6 in LNCaP cells. FIG. 1B: The effects of neutralizing antibody against IL-6 on the protein level of Pim-1 in PC3 cells. FIG. 1C: Expression of the two isoforms of Pim-1 by the EST clones in transfected LNCaP, 22Rv1 and PC3 cells FIG. 1D: The N-terminal unique sequence in human 44 kD Pim-1. Part of the sequence of the 5′ end of Pim-1 cDNA in the EST clones is shown. The putative alternative translation initiation site CUG and the start codon AUG are in boldface. FIG. 1E: Alignment of the unique N-terminal sequence in the 44 kD Pim-1 from human and mouse origins. Proline-rich motifs are underlined and bold. The translation initiation sites of the two isoforms are shown by arrows.
Induction of Pim-1 expression by IL-6 was assessed in serum starved LNCaP cells that were treated with 25 ngml IL-6 for 24 hour at 37 degrees. The level of Pim-1 protein was examined by immunoblotting with a monoclonal anti-Pim-1 antibody (Top). The same blot was then probed with anti-actin to monitor the sample loading (Bottom). […] One embodiment of the present invention is directed to the isolated human 44 kD isoform identified by SEQ ID NO. 4 or a functional equivalent or variant thereof and its use in screening assays. We are the first to isolate and describe the gene for the 44 kD isoforms identified in SEQ ID NO. […]

Turning to “5′ GCAGGACAGUGCUUGAUAC 3′ (lentivirus encoded, further chemistry not given here; listed as Homo sapiens) [siRNA, 1, lenti-virus encoded]”, in data set [1], the “BCRP-mediated resistance to mitoxantrone and topotecan” value is “able to reduce or compromise BCRP-mediated resistance”. Besides, the BCRP-mediated drug resistance result in data set [2] was “inhibited BCRP-mediated drug resistance”. For the same compound, the “sensitivity to apoptosis induced by chemotherapeutic agents” value in data set [3] is “sensitized”. The “phosphorylation of BCRP” value in data set [4] is given as “significantly reduced”.

For `COc1cccc2c1C(=O)c1c(O)c3c(c(O)c1C2=O)C[C@@](O)(C(=O)CO)C[C@@H]3O[C@H]1C[C@H](N)[C@H](O)[C@H](C)O1` [doxorubicin], the viability at 0.1 µg/mL in data set [5] (20 h) is ~50%; in data set [5] (40 h), > 70%. Besides, the apoptotic cells detected result in data set [5] (LNCaP cells expressing Pim-1L, doxorubicin 0.1 ug/ml, 20 hours post-treatment) is listed as “Virtually no apoptotic cells were detected”. The compound further showed a cells that survived in data set [5] (LNCaP cells expressing the empty vector or kinase-inactive Pim-1LKM, doxorubicin 0.1 ug/ml, 40 hour treatment) of 20%. Moreover, in data set [5] (LNCaP cells over-expressing Pim-1S, doxorubicin 0.1 ug/ml, 20 h), the cell survival result is “about 80%”.

As for “IL-6: interleukin 6, cytokine used to induce Pim-1 expression”, the “expression of the 44 kD Pim-1 protein” value in data set [6] is “induced”.
